Data published in PMC10745768, “Stereoselective Synthesis and Antiproliferative Activity of Steviol-Based Diterpene 1,3-Aminoalcohol Regioisomers” (Molecules, 2023).

Legend:
HeLa cells = experiment: MTT antiproliferative assay, HeLa; format: cell-based; settings: Homo sapiens, 72 h; for inhibition at 10 µM / inhibition at 30 µM: read-out: Growth inhibition (%) ± SEM
Description: (§1) The in vitro anticancer effects of the presented compounds were assessed using the standard MTT [3-(4,5-dimethylthiazol2-yl)-2,5-diphenyltetrazolium bromide] assay on the following human cancer cell lines: cervical (HeLa and SiHa), breast (MCF-7 and MDA-MB-231) and ovarian cancer (A2780). The selectivity of the tested compounds was determined on murine embryonal fibroblast cells (NIH/3T3). The utilised cell lines were purchased from the European Collection of Cell Cultures (Salisbury, UK). The cells were cultivated in Eagle’s minimal essential medium supplemented with 10% fetal bovine serum, 1% non-essential amino acids and 1% antibiotic-antimycotic complex (penicillin, streptomycin, amphotericin B) at 37 °C in a humidified atmosphere containing 5% CO2. All media and supplements were purchased from Lonza Group Ltd. (Basel, Switzerland). The cancer cells were seeded into 96-well plates (5000 cells/well) and incubated overnight, and the test compounds were applied in two different concentrations (10 µM and 30 µM) and incubated for another 72 h under cell-culturing conditions. […] After 72 h, 20 µL of the 5 mg/mL MTT solution was added to each well, and the plates were incubated for 4 h. The medium was removed, and the formazan crystals produced by the mitochondrial activity were dissolved in dimethyl sulfoxide (DMSO) via shaking at 37 °C for 30 min. The absorbances were measured at 545 nm using a microplate reader (SPECTROStar Nano, BMG Labtech, Offenburg, Germany). The reference agent was cisplatin, which is a widely used cytotoxic agent. The IC50 values were calculated using sigmoid curve fitting. Two independent experiments were performed with five parallel wells for each condition. Calculations were performed using the GraphPad Prism 9 software (GraphPad Software Inc., San Diego, CA, USA).

MCF-7 cells = experiment: MTT antiproliferative assay, MCF-7; format: cell-based; settings: Homo sapiens, MCF7; for inhibition at 10 µM: MCF-7, 10 μM; for inhibition at 10 µM / inhibition at 30 µM: 72 h, read-out: Growth inhibition (%) ± SEM; for inhibition at 30 µM: MCF-7, 30 μM
Description: as §1

[1] = system: human cancer cell lines (HeLa, SiHa, MCF-7, MDA-MB-231, A2780); experiment: MTT antiproliferative assay, panel of malignant cells; format: cell-based; settings: for antiproliferative action at higher concentration (in words): 30 μM
Description: as §1

A2780 cells = experiment: MTT antiproliferative assay, A2780; format: cell-based; settings: Homo sapiens; for inhibition at 10 µM: A2780, 10 μM; for inhibition at 10 µM / inhibition at 30 µM: 72 h, read-out: Growth inhibition (%) ± SEM; for inhibition at 30 µM: A2780, 30 μM
Description: as §1

SiHa cells = experiment: MTT antiproliferative assay, SiHa; format: cell-based; settings: Homo sapiens, 72 h; for inhibition at 10 µM / inhibition at 30 µM: read-out: Growth inhibition (%) ± SEM
Description: as §1

MDA-MB-231 cells = experiment: MTT antiproliferative assay, MDA-MB-231; format: cell-based; settings: Homo sapiens; for inhibition at 10 µM: MDA-MB-231, 10 μM; for inhibition at 10 µM / inhibition at 30 µM: 72 h, read-out: Growth inhibition (%) ± SEM; for inhibition at 30 µM: MDA-MB-231, 30 μM
Description: as §1

NIH/3T3 fibroblast cells = experiment: MTT assay on non-malignant fibroblasts (selectivity); format: cell-based, murine; settings: Mus musculus, NIH3T3; for inhibition at 10 µM: NIH/3T3, 10 μM; for inhibition at 10 µM / inhibition at 30 µM: 72 h, read-out: Growth inhibition (%) ± SEM; for inhibition at 30 µM: NIH/3T3, 30 μM
Description: as §1

| Structure (SMILES) | inhibition at 10 µM (HeLa cells) [%] | inhibition at 30 µM (HeLa cells) [%] | inhibition at 10 µM (MCF-7 cells) [%] | inhibition at 30 µM (MCF-7 cells) [%] | melting point [°C] | antiproliferative action at higher concentration (in words) [1] | inhibition at 10 µM (A2780 cells) [%] | inhibition at 30 µM (A2780 cells) [%] | inhibition at 10 µM (SiHa cells) [%] | inhibition at 30 µM (SiHa cells) [%] | inhibition at 10 µM (MDA-MB-231 cells) [%] | inhibition at 30 µM (MDA-MB-231 cells) [%] | inhibition at 10 µM (NIH/3T3 fibroblast cells) [%] | inhibition at 30 µM (NIH/3T3 fibroblast cells) [%] | further results |
| --- | --- | --- | --- | --- | --- | --- | --- | --- | --- | --- | --- | --- | --- | --- | --- |
| COC(=O)[C@]1(C)CCC[C@@]2(C)[C@@H]3CC[C@@]4(CO)C[C@]3(CC[C@@H]21)C[C@H]4N [Compound 6, (4R,4aS,6aR,8R,9R,11aR,11bS)-Methyl 8-amino-9-(hydroxymethyl)-4,11b-dimethyltetradecahydro-6a,9-methanocyclohepta[a]naphthalene-4-carboxylate] | 23.2 ± 1.97 | 93.94 ± 0.55 | 36.4 ± 3.48 | 98.58 ± 0.22 | 166 to 170 | pronounced cell growth inhibition | 24.8 ± 5.19 | 82.5 ± 4.66 | < 20 | 68.24 ± 0.61 | 25.8 ± 2.49 | 97.6 ± 0.67 | 22.1 ± 1.54 | 98.27 ± 0.37 |  |
| COC(=O)[C@]1(C)CCC[C@@]2(C)[C@@H]3CC[C@@]4(CO)C[C@]3(CC[C@@H]21)C[C@@H]4N [Compound 7, (4R,4aS,6aR,8S,9R,11aR,11bS)-Methyl 8-amino-9-(hydroxymethyl)-4,11b-dimethyltetradecahydro-6a,9-methanocyclohepta[a]naphthalene-4-carboxylate] | 24.9 ± 2.49 | 96.89 ± 0.54 | 43.1 ± 3.79 | 99.33 ± 0.24 | 127 to 130 | pronounced cell growth inhibition | 27 ± 4.31 | 91.6 ± 1.97 | < 20 | 88.6 ± 2.01 | 28 ± 1.84 | 97.67 ± 0.67 | < 20 | 97.76 ± 0.7 |  |
| COC(=O)[C@]1(C)CCC[C@@]2(C)[C@@H]3CC[C@@]4(CNCc5ccccc5)C[C@]3(CC[C@@H]21)C[C@H]4O [Compound 22, (4R,4aS,6aR,8R,9S,11aR,11bS)-Methyl 9-((benzylamino)methyl)-8-hydroxy-4,11b-dimethyltetradecahydro-6a,9-methanocyclohepta[a]naphthalene-4-carboxylate] | 59.2 ± 6.61 | 90.87 ± 0.35 | 90.6 ± 0.98 | 94.23 ± 0.82 | 98 to 104 |  | 69.5 ± 3.98 | 96.04 ± 0.45 | 69 ± 2.02 | 80.8 ± 2.91 | 90.95 ± 0.4 | 89.66 ± 0.28 | 49 ± 1.37 | 94.25 ± 0.45 |  |
| COC(=O)[C@]1(C)CCC[C@@]2(C)[C@@H]3CC[C@@]4(CO)C[C@]3(CC[C@@H]21)C[C@H]4N[C@@H](C)c1ccc2ccccc2c1 [Compound 16, (4R,4aS,6aR,8R,9R,11aR,11bS)-Methyl 9-(hydroxymethyl)-4,11b-dimethyl-8-(((S)-1-(naphthalen-2-yl)ethyl)amino)tetradecahydro-6a,9-methanocyclohepta[a]naphthalene-4-carboxylate] | 55.4 ± 2.81 | 95.7 ± 1.12 | 81 ± 2.03 | 97.95 ± 0.56 | 105 to 108 |  | 97.6 ± 2.81 | 100.3 ± 0.57 | 80 ± 1.41 | 89.4 ± 1.03 | 84.4 ± 2.92 | 93.6 ± 1.23 | < 20 | 96.83 ± 0.66 | IC50 (HeLa cells; read-out: calculated IC50): 3.4 µM; IC50 (MCF-7 cells; MCF-7, 72 h, read-out: calculated IC50): 3.88 µM; IC50 ([1]; Homo sapiens, range over the five cancer cell lines): 3.44 to 6.33 µM; IC50 (A2780 cells; A2780, 72 h, read-out: calculated IC50): 4.43 µM; IC50 (SiHa cells; read-out: calculated IC50): 6.33 µM; IC50 (MDA-MB-231 cells; MDA-MB-231, 72 h, read-out: calculated IC50): 4.51 µM; IC50 (NIH/3T3 fibroblast cells; NIH/3T3, 72 h, read-out: calculated IC50): 17.4 µM |
| COC(=O)[C@]1(C)CCC[C@@]2(C)[C@@H]3CC[C@@]4(CN=[N+]=[N-])C[C@]3(CC[C@@H]21)C[C@H]4O [Compound 20, (4R,4aS,6aR,8R,9S,11aR,11bS)-Methyl 9-(azidomethyl)-8-hydroxy-4,11b-dimethyltetradecahydro-6a,9-methanocyclohepta[a]naphthalene-4-carboxylate] | < 20 | < 20 | < 20 | 30.7 ± 0.93 | 72 to 74 | no substantial action | < 20 | 27 ± 2.25 | < 20 | < 20 | < 20 | < 20 | < 20 | < 20 |  |
| CC[C@H](N[C@@H]1C[C@]23CC[C@H]4[C@@](C)(CCC[C@@]4(C)C(=O)OC)[C@@H]2CC[C@@]1(CO)C3)c1ccccc1 [Compound 11, (4R,4aS,6aR,8R,9R,11aR,11bS)-Methyl 9-(hydroxymethyl)-4,11b-dimethyl-8-(((S)-1-phenylpropyl)amino)tetradecahydro-6a,9-methanocyclohepta[a]naphthalene-4-carboxylate] | < 20 | 94.48 ± 0.84 | 49.5 ± 3.06 | 96.94 ± 0.57 | 88 to 95 |  | 74.2 ± 2.1 | 98.12 ± 0.3 | < 20 | 83.7 ± 3.19 | < 20 | 90.8 ± 1.35 | 22.2 ± 2.22 | 93.6 ± 2.02 |  |
| COC(=O)[C@]1(C)CCC[C@@]2(C)[C@@H]3CC[C@@]4(CN=[N+]=[N-])C[C@]3(CC[C@@H]21)CC4=O [Compound 19, (4R,4aS,6aR,9S,11aR,11bS)-Methyl 9-(azidomethyl)-4,11b-dimethyl-8-oxotetradecahydro-6a,9-methanocyclohepta[a]naphthalene-4-carboxylate] | 31.6 ± 1.34 | 46.86 ± 0.27 | < 20 | 38 ± 1.36 | 97 to 99 | no substantial action | < 20 | 41.7 ± 1.99 | < 20 | < 20 | < 20 | < 20 | < 20 | < 20 |  |
| COC(=O)[C@]1(C)CCC[C@@]2(C)[C@@H]3CC[C@@]4(CO)C[C@]3(CC[C@@H]21)C[C@H]4N[C@H](C)c1cccc2ccccc12 [Compound 13, (4R,4aS,6aR,8R,9R,11aR,11bS)-Methyl 9-(hydroxymethyl)-4,11b-dimethyl-8-(((R)-1-(naphthalen-1-yl)ethyl)amino)tetradecahydro-6a,9-methanocyclohepta[a]naphthalene-4-carboxylate] | < 20 | 92.3 ± 2.7 | 56.7 ± 3.88 | 96.84 ± 0.55 | 180 to 185 |  | 83.7 ± 1.95 | 99.02 ± 0.39 | 24.2 ± 3.46 | 87.9 ± 1.62 | < 20 | 94.3 ± 1.83 | < 20 | 96.88 ± 0.74 |  |
